In patent US5861387A, “Controlled release systems and low dose androgens” (Endorecherche Inc., priority 1995, dated 1999):

Columns and labels:
[1] = test system: human breast cancer ZR-75-1 cells, androgen receptor; assay: Androgenic (androgen receptor) activity in ZR-75-1 cells: cell growth and GCDFP-15/GCDFP-24 secretion; assay type: cell-based; settings: ZR-75-1 cells, low concentrations
Protocol: Maintenance of stock cultures The ZR-75-1 human breast cancer cell line can be obtained from the American Type Culture Collection (Rockville, Md.). The cells are routinely cultured in phenol red-free RPMI 1640 medium supplemented with 10 nM E2, 15 mM Hepes, 2 mM L-glutamine, 1 mM sodium pyruvate, 100 IU penicillin per ml, 100 μg streptomycin sulfate per ml, and 10% (v/v) fetal bovine serum (FBS), in a water-saturated atmosphere of 95% air: 5% CO2 at 37° C.
Stock cultures in their logarithmic growth phase are harvested with 0.05% trypsin/0.02% EDTA (w/v) in Hanks' balanced salts solution and resuspended in E2- and phenol red-free RPMI 1640 medium containing 5% (v/v) dextran-coated charcoal (DCC)-treated FBS and 500 ng of bovine insulin per ml, but otherwise supplemented as described above for maintenance of stock cultures. Cells were plated in 24-well Linbro culture plates (Flow Laboratories) at a final density of 0.5-4.0×10^4 cells/well.
Fourty-eight hours after plating, fresh SD medium containing the appropriate concentrations of steroids are added. […] The incubation media are replaced every other day and cells are harvested by trypsinization after 12 days of treatment, unless otherwise indicated. Cell number can be determined with a Coulter Counter.
Calculations and statistical analyses Apparent IC50 values are calculated using an iterative least squares regression (Rodbard, Endocrinology 94:1427-1437,1974), while apparent inhibition constants (Ki values) are calculated according to Cheng and Prusoff (Biochem. Pharmacol. 22: 3099-3108,1973).
In addition to inhibition of cell growth, the secretion of two glycoproteins, namely gross cystic disease fluid protein-15 (GCDFP-15) and GCDFP-24 is markedly stimulated by androgens (Simard et al., Mol. Endocrinol. 3: 694-702, 1989; Simard et al., Endocrinology 126: 3223-3231, 1990).
(§1) To assist in determining the activity of the potential compounds on the various steroid receptors, androgen, glucocorticoid, progesterone and estrogen-receptor-mediated activities of synthetic progestins and anabolic steroids can be measured in ZR-75-1 human breast cancer cells using cell growth as well as GCDFP-15 and GCDFP-24 release as parameters of response (Poulin and Labrie, Cancer Res. 46: 4933-4937, 1986; Poulin et al., Breast Cancer Res. Treatm. 12: 213-225, 1988; Poulin et al., Breast Cancer Res. Treatm. 13: 161-172, 1989; Poulin et al., Breast Cancer Res. Treatm. 13: 265-276, 1989; Simard et al., Mol. Endocrinol. 3: 694-702, 1989; Simard et al., Endocrinology 126: 3223-3231, 1990).
In order to analyze the interactions of synthetic progestins or anabolic steroids with the androgen receptor (AR) and glucocorticoid receptor (GR) in their inhibitory action on cell growth, one takes advantage of the additivity of the anti-proliferative effects of androgens and glucocorticoids in this cell line (Poulin et al., Breast Cancer Res. Treatm. 12: 213-225, 1988; Hatton and Labrie, F., unpublished data). […] On the other hand, the effect of a putative androgen can similarly be measured following saturation of GR by dexamethasone (DEX). […] Thus, in the presence of excess androgen (1 μM DMT) in the presence of E2 and insulin, glucocorticoid effects can be assessed with precision and with no interference by the other receptors. The same applies to study of the role of AR when the cells are incubated in the presence of excess glucocorticoid (3 μM DEX), in the presence of E2 and insulin.

[2] = test system: estrogenic activity; settings: cited from earlier work
[3] = test system: ZR-75-1 human breast cancer cells, glucocorticoid receptor; settings: detailed kinetic studies
Excerpt: as §1
In order to analyze the interactions of synthetic progestins or anabolic steroids with the androgen receptor (AR) and glucocorticoid receptor (GR) in their inhibitory action on cell growth, one takes advantage of the additivity of the anti-proliferative effects of androgens and glucocorticoids in this cell line (Poulin et al., Breast Cancer Res. Treatm. 12: 213-225, 1988; Hatton and Labrie, F., unpublished data). […] On the other hand, the effect of a putative androgen can similarly be measured following saturation of GR by dexamethasone (DEX). […]

[4] = test system: ZR-75-1 human breast cancer cells, progesterone receptor; assay: Progesterone receptor-mediated inhibition of ZR-75-1 cell growth; assay type: cell-based
Protocol: These two characteristics of ZR-75-1 cell growth permit study of the extent to which a tested compound's effects on ZR-75-1 cells are attributed to its interaction with PgR by evaluating the effect of insulin and/or estrogen addition on the growth response measured at the end of a 15-day incubation of ZR-75-1 cells with the test compounds.

[5] = test system: estrogen (ER) and progesterone (PgR) receptor contents in ZR-75-1 cells; settings: cited from earlier work
[6] = test system: endometriosis; settings: in vivo; cited from earlier work
[7] = test system: bone; settings: in vivo; cited from earlier work

In the case of C#CC1(O)CC[C@H]2[C@@H]3CCC4=CC(=O)CC[C@@H]4[C@H]3CC[C@@]21CC (mixture of isomers) [norgestrel], the androgenic activity [1] is listed as “possess androgenic activity at low concentrations” and the estrogenic activity [2] is listed as “possess estrogenic activity”.
For C[C@@H]1C[C@H]2[C@@H]3CCC4=CC(=O)C=C[C@]4(C)[C@@]3(F)[C@@H](O)C[C@]2(C)[C@@]1(O)C(=O)CO [DEX, dexamethasone], the “concentration exerting maximal inhibitory effect on the GR” value [3] was 3 µM.
With CCC(=O)[C@@]1(C)CC[C@H]2[C@@H]3CCC4=CC(=O)CCC4=C3CC[C@@]21C [R5020] the “condition under which antiproliferative effect is observed” value [4] was “observed only under E1 -stimulated conditions” and the “effect of insulin on inhibition via PgR” value ([4]; addition of insulin) was “completely reverses the inhibition”.
For CC(C)(O)C(=O)Nc1ccc([N+](=O)[O-])c(C(F)(F)F)c1 [hydroxyflutamide], the “effect on androgenic action of DHT” value [5] is listed as “competitively reversed”.
In the case of C[C@]12CCC(=O)C=C1CC[C@@H]1[C@@H]2CC[C@@]2(C)[C@H]1CC[C@]2(C)O [methyltestosterone, 17α-methyltestosterone], the symptoms of endometriosis [6] is given as “relieve the symptoms of endometriosis”.
For C[C@]12CC[C@H]3[C@@H](CCC4=CC(=O)CC[C@@H]43)[C@@H]1CC[C@@H]2O [nandrolone], the androgenic side effects [7] is given as 50 % of patients and the “cortical bone mineral content” value [7] is given as “increased cortical bone mineral content”.
In the case of C#C[C@]1(O)CC[C@H]2[C@@H]3CCC4=CC(=O)CC[C@@H]4[C@H]3CC[C@@]21C [norethisterone], the estrogenic activity [2] is given as “possess estrogenic activity”.
